ChEMBL document CHEMBL5647690, “Inhibition of demethylases by GSK-J1/J4” (Nature, 2014)
pIC50: −log10 of the molar value.

What was measured:
[1] = target: T1, Lysine-specific demethylase 2B (Homo sapiens, UniProt Q8NHM5); assay: Inhibition of KDM2B (1 to 650 residues)(unknown origin) by Alphalisa assay
T1 sequence (Q8NHM5 whole entry): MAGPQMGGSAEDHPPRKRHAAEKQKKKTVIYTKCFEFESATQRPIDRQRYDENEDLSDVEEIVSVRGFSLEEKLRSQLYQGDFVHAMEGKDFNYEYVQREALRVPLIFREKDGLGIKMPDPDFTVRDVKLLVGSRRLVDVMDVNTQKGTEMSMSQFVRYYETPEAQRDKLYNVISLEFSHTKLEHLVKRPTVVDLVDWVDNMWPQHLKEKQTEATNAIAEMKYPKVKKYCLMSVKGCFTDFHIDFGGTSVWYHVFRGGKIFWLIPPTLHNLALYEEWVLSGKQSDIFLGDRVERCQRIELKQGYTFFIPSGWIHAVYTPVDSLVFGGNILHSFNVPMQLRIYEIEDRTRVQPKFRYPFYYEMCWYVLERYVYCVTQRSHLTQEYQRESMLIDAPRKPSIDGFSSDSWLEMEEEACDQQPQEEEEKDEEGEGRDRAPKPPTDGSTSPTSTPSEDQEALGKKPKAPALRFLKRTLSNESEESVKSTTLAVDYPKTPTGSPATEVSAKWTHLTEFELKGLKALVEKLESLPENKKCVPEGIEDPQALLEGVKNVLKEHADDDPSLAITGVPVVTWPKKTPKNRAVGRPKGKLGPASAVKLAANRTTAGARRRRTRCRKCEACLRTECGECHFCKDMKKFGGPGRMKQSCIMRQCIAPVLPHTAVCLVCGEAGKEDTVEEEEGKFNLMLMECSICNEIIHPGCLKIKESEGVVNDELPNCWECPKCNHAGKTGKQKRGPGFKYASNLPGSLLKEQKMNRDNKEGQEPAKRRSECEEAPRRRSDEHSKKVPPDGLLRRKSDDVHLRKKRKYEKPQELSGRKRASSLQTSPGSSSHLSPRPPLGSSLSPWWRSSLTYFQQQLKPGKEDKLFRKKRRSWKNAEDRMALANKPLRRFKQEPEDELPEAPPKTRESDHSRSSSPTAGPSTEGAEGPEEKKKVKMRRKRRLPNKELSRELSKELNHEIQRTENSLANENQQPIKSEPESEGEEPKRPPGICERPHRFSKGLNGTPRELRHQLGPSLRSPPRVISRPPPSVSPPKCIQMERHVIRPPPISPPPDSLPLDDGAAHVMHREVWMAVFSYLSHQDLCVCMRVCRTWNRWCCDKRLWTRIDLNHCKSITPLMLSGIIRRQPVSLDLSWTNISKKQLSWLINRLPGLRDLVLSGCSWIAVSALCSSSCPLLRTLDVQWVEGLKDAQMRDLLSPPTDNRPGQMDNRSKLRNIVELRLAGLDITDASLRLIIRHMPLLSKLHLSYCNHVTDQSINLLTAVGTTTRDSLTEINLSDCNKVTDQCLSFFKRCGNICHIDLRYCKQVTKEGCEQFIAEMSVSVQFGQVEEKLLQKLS

[2] = Inhibition of epitope-tagged KDM5B (1 to 752 residues)(unknown origin) transfected in human U2OS cells using H3K4me2 peptide as substrate; format: cell-based
[3] = target: T2, Lysine-specific demethylase 4C (Homo sapiens, UniProt Q9H3R0); assay: Inhibition of KDM4C (1 to 349 residues)(unknown origin) by Alphalisa assay
T2 sequence (Q9H3R0 whole entry): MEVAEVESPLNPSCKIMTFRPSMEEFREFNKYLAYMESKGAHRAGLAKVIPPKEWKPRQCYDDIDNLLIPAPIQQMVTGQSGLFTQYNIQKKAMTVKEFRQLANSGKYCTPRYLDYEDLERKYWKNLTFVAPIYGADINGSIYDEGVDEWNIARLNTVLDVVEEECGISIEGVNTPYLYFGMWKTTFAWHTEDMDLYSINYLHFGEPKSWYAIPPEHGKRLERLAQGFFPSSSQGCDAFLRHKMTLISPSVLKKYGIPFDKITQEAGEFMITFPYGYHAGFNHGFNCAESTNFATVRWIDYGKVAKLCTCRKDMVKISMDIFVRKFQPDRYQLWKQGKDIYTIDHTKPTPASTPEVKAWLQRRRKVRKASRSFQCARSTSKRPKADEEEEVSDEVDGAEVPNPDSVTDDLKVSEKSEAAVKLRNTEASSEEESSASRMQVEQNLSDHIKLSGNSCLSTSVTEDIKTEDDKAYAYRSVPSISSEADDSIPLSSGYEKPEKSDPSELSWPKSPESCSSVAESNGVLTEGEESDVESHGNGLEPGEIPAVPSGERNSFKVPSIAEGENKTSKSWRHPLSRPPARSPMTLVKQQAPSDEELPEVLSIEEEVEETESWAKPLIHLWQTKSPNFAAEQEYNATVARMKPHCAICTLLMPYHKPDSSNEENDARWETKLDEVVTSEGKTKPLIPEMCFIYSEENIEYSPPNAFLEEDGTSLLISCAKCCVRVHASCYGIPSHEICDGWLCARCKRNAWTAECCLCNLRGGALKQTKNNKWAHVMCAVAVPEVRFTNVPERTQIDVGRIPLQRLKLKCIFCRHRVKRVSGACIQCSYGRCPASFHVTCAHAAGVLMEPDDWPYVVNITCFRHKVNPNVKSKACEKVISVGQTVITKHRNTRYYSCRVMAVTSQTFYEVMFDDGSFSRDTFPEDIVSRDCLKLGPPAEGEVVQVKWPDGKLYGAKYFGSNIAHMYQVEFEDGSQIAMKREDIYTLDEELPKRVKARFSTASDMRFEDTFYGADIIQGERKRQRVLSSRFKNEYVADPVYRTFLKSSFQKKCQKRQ

pIC50 [1] | pIC50 [2] | pIC50 [3] | SMILES
5.68 | 5.51 | 5.26 | CCOC(=O)CCNc1cc(N2CCc3ccccc3CC2)nc(-c2ccccn2)n1
4.68 | – | 4.47 | O=C(O)CCNc1cc(N2CCc3ccccc3CC2)nc(-c2ccccn2)n1
